Here are results for 1 compound from patent US11357852B2, “Diglycosylated benzophenoxazine photosensitizer and preparation method and use thereof” (The Third Xiangya Hospital of Central South University, priority 2017, dated 2022).

The structures appear in SMILES notation.

Common to all, as to format: cell-based
One experiment relates to Cyclin D1. Kind of experiment: Western Blot of Cyclin D1 expression in A-431 cells. The note with it: Western Blot (FIG. 6). From the text:
(§1) The Wnt signaling pathway mainly refers to a classic Wnt signaling pathway mediated by β-Catenin. In the absence of the Wnt signaling, GSK3β can add a phosphate group to the serine/threonine residue at the N-terminus of β-Catenin. The phosphorylated β-Catenin is covalently modified by β-TRCP ubiquitination and then degraded by a proteasome. […] Therefore, by measuring the phosphorylation statuses of GSK3β, β-Catenin and PP2A, we can directly understand whether the Wnt signaling is activated. C-myc and Cyclin D1 as protooncogenes can promote division and translation of the cells of cutaneous squamous cell carcinoma, and ultimately promote cell proliferation. By observing C-myc and Cyclin D1, we can clearly understand the inhibition effect of the photosensitizer of the present invention on proliferation of the A-431 cells. […]
(§2) A-431 cells at the logarithmic growth phase were digested with trypsin, and inoculated into a six-well culture plate, and cultured in a 5% CO2 incubator at 37° C. […] Respectively after 0.5 h and 16 h, the cells were collected to extract total protein, and the p-GSK3β, p-PP2A, p-β-catenin, C-myc, Cyclin D1 and β-Catenin in the cells were detected by the Western Blot method.

The test system of another experiment is p-GSK3β. Kind of experiment: Western Blot of GSK3β phosphorylation in A-431 cells. The following applies: 200 to 800 nM, 20 J/cm^2 red light 15 min, Western Blot (FIG. 5).
From the text: as §1, §2
A general note: A western blot detects proteins with antibodies after separation by electrophoresis.

The test system of another experiment is C-myc. Kind of experiment: Western Blot of C-myc expression in A-431 cells. The following applies: Western Blot (FIG. 6).
From the text: as §1, §2

For another experiment, the system named is p-β-catenin. As to the kind of experiment: Western Blot of β-catenin phosphorylation in A-431 cells. The note with it: 100 nM and 400 to 800 nM, 20 J/cm^2 red light 15 min, Western Blot (FIG. 5).
From the text: as §1, §2

The next experiment relates to A-431 cells. As to the kind of experiment: MTT method, proliferation of A-431 cells after photosensitizer and red light irradiation. The procedure:
The MTT method is a method for detecting cell survival and growth. The detection principle of it is that a succinate dehydrogenase in mitochondria of living cells can reduce exogenous MTTs to water-insoluble blue-violet crystalline formazan and deposit the formazan in the cells, while dead cells have no such function. Dimethyl sulfoxide (DMSO) can dissolve the formazan in the cells, and the light absorbance value of it is measured at 490 nm wavelength with an enzyme-linked immunometric meter, which can indirectly reflect the number of living cells.
The cell line A-431 of cutaneous squamous cell carcinoma was cultured in a DMEM medium that contained 10% calf serum, added with […] of penicillin and 100 mg/L of streptomycin, and placed in a constant-temperature incubator at 37° C. and containing 5% CO2 for conventional culture. After the cells grew to confluence on the bottom of the flask, the medium was discarded, the cells were rinsed twice with a PBS solution, and then digested with 0.25% trypsin and 0.02% EDTA for 5 minutes, and then subcultured into flasks once every 2 to 3 days. The cells at the logarithmic growth phase were taken for experiment.
A-431 cells at the logarithmic growth phase were digested with trypsin, and inoculated into a six-well culture plate, and cultured in a 5% CO2 incubator at 37° C. When grew to the confluence of 80%-90%, the cells were respectively added with distilled water and 100 nM, 200 nM, 400 nM, 600 nM and 800 nM of the diglycosylated benzophenoxazine photosensitizer referred in the present invention. After incubation for 1 h, the cells were irradiated with 20 J/cm^2 of red light for 15 min. 16 h later, the survival and growth status of the cells were detected by the MTT method.
(In general: Formazan colour is commonly taken as a measure of viable cells.)

In a further experiment the test system is β-Catenin. Kind of experiment: Western Blot of β-Catenin expression in A-431 cells. The following applies: Western Blot (FIG. 6).
From the text: as §1, §2

The subject of another experiment is p-PP2A. As to the kind of experiment: Western Blot of PP2A phosphorylation in A-431 cells. The following applies: 200 to 800 nM, 20 J/cm^2 red light 15 min, Western Blot (FIG. 5).
From the text: as §1, §2

Consider `CCN(CC)CCC(C)(C[Se]N(CC)c1ccc2nc3c4ccccc4/c(=N\[Se]CC(C)(CN(CC)CC)ONC4C(O)C(O)C(CO)O[C@@H]4O)cc-3[se]c2c1)ONC1C(O)C(O)C(CO)O[C@@H]1O` (stereo partly drawn), for which the “expression quantity of Cyclin D1” value in the experiment on Cyclin D1 (100 to 400 nM) is given as “increased slightly”; in the experiment with Cyclin D1 (600 and 800 nM), “significantly decreased”. In the experiment with p-GSK3β, the “phosphorylation of GSK3β” value is recorded as “significantly inhibit”. For the same compound, the “expression quantity of C-myc” value was “increased slightly” with C-myc (100 to 400 nM); “significantly decreased” in the experiment on C-myc (600 and 800 nM). For the same compound, the “phosphorylation of β-catenin” value in the experiment on p-β-catenin was “significantly promote”. Further, the “proliferation of A-431 cells” value with A-431 cells (600 nM and 800 nM, concluded from Western Blot results (FIG. 6)) was “significantly inhibit”. The “proliferation of the A-431 cells” value in the experiment on A-431 cells (100-800 nM, inhibition increases with dose, 20 J/cm^2 red light 15 min, MTT 16 h later) is “significantly inhibit”. Also, the inhibition at 0.8 µM in the experiment with A-431 cells (Homo sapiens, light or radiation study, 800 nM, A-431 cells, incubation 1 h, 20 J/cm^2 red light 15 min, MTT 16 h later, read-out: proliferation inhibition effect) was 80%. Moreover, the “expression quantity of β-Catenin” value in the experiment on β-Catenin (100 to 400 nM) is reported as “increased slightly”; in the experiment on β-Catenin (600 and 800 nM), “significantly decreased”. For the same compound, the “phosphorylation of PP2A” value in the experiment on p-PP2A is “significantly inhibit”.
